# Like-named read-outs stand apart in the source and are kept apart here.
# How the values were obtained:
# Tocilizumab = assay: Microtiter plate chromatography of resins, Tocilizumab (bound, yield); format: binding, humanized
# host cell proteins (HCP) = assay: Microtiter plate chromatography of resins, host cell proteins (bound); format: binding, CHO; details: host cell proteins
# Bevacizumab [1] = target: T1, Bevacizumab (Homo sapiens, UniProt P01857); assay: Microtiter plate chromatography of resins, Bevacizumab whole IgG (bound, yield, selectivity); format: binding, humanized; details: for Bevacizumab IgG Bound (%): fraction of whole IgG Bevacizumab bound to resin; for Bevacizumab IgG Yield (%): mass of whole IgG Bevacizumab eluted / mass injected
# T1 construct: fused on or other part: humanised anti-VEGF-A VH domain N-terminal of the gamma-1 constant region (engineered, no UniProt entry)
# Bevacizumab [2] = assay: as above; format: binding, humanized
# [3] = tested on: human poly-IgG (h-poly-IgG); assay: Microtiter plate chromatography of resins, human poly-IgG (bound, yield); format: binding
# Palivizumab = assay: Microtiter plate chromatography of resins, Palivizumab (bound, yield); format: binding, humanized
# [4] = fraction of bound Bevacizumab whole IgG / fraction of bound HCP, truncated beyond values of 10
Compound,Tocilizumab Bound (%) (Tocilizumab),Tocilizumab Yield (%) (Tocilizumab),HCP Bound (%) (host cell proteins (HCP)),Bevacizumab IgG Bound (%) (Bevacizumab [1]),Bevacizumab IgG Yield (%) (Bevacizumab [1]),Selectivity (Bevacizumab [2]),h-poly-IgG Bound (%) [3] [%],h-poly-IgG Yield (%) [3] [%],Palivizumab Bound (%) (Palivizumab),Palivizumab Yield (%) (Palivizumab),"selectivity index (Bevacizumab [2]; fraction of bound Bevacizumab whole IgG divided by fraction of bound HCP, truncated beyond 10)",Selectivity (Bevacizumab [2]; [4])
"COc1ccc(NC(=O)c2n[nH]c3ccccc23)cc1C(=O)NCCCN [Ligand L36, 5-(Indazol-3-yl)carboxamido-2-methoxybenzoic acid N-(3-aminopropyl)amide]",100,95,54,100,100,1.9,95,77,100,100,,
"COc1ccc(NC(=O)c2cn3ccsc3n2)cc1C(=O)NCCCN [Ligand L37, 5-(Imidazo[2,1-b]thiazol-6-yl)carboxamido-2-methoxybenzoic acid N-(3-aminopropyl)amide]",99,95,29,100,92,3.4,94,70,92,87,3.4,
"CCn1nc(C(=O)Nc2ccc(OC)c(C(=O)NCCCN)c2)c2ccccc21 [Ligand L38, 5-(1-Ethylindazol-3-ylcarboxamido)-2-methoxybenzoic acid (3-amino-1-propyl)amide]",100,99,45,100,100,2.2,100,99,91,79,,
"COc1ccc(C(=O)Nc2nn(C)c3ccccc23)cc1C(=O)NCCCN [Ligand L39, 5-[N-(1-Methylindazol-3-yl)carbamoyl]-2-methoxybenzoic acid (3-amino-1-propyl)amide]",100,100,35,100,100,2.9,100,100,100,100,,
"COc1ccc(NC(=O)c2nc3cccnc3[nH]2)cc1C(=O)NCCCN [Ligand L41, 5-(3H-Imidazo[4,5-b]pyridin-2-ylcarboxamido)-2-methoxybenzoic acid (3-amino-1-propyl)amide]",91,91,9,100,100,,85,85,74,71,,10.0
"COc1ccc(NC(=O)c2cc(-c3csc(C)n3)on2)cc1C(=O)NCCCN [Ligand L42, 2-Methoxy-5-[5-(2-methylthiazol-4-yl)isoxazol-3-ylcarboxamido]benzoic acid (3-amino-1-propyl)amide]",100,99,32,100,92,3.1,100,100,99,99,,
"COc1ccc(NC(=O)c2nnc3ccccn23)cc1C(=O)NCCCN [Ligand L43, 2-Methoxy-5-([1,2,4]triazolo[4,3-a]pyridin-3-ylcarboxamido)benzoic acid (3-amino-1-propyl)amide]",88,88,13,100,90,8.0,90,90,61,43,,
"COc1ccc(NC(=O)c2nn(C)c3ncccc23)cc1C(=O)NCCCN [Ligand L44, 2-Methoxy-5-(1-methylpyrazolo[3,4-b]pyridin-3-ylcarboxamido)benzoic acid (3-amino-1-propyl)amide]",78,78,4,100,100,,73,73,56,56,,10.0
"COc1ccc(NC(=O)c2cc(-c3ccco3)on2)cc1C(=O)NCCCN [Ligand L45, 5-[5-(2-Furyl)isoxazol-3-ylcarboxamido]-2-methoxybenzoic acid (3-amino-1-propyl)amide]",100,100,44,100,82,2.3,100,100,100,100,,
"COc1ccc(NC(=O)c2cc3ccccn3n2)cc1C(=O)NCCCN [Ligand L46, 2-Methoxy-5-(pyrazolo[1,5-a]pyridin-2-ylcarboxamido)benzoic acid (3-amino-1-propyl)amide]",100,97,20,100,82,5.0,93,93,85,85,,
"COc1ccc(NC(=O)c2nc3ccccc3[nH]2)cc1C(=O)NCCCN [Ligand L47, 5-(1H-Benzimidazol-2-ylcarboxamido)-2-methoxybenzoic acid (3-amino-1-propyl)amide]",100,100,35,100,97,2.9,71,65,85,85,,
"COc1ccc(NC(=O)c2cn3ncccc3n2)cc1C(=O)NCCCN [Ligand L48, 5-(Imidazo[1,2-b]pyridazin-2-ylcarboxamido)-2-methoxybenzoic acid (3-amino-1-propyl)amide]",87,87,8,100,97,,84,84,58,54,,10.0
"COc1ccc(NC(=O)c2cc(-c3ccccc3)no2)cc1C(=O)NCCCN [Ligand L51, 2-Methoxy-5-(3-phenylisoxazol-5-ylcarboxamido)benzoic acid (3-amino-1-propyl)amide]",95,93,30,100,95,3.3,89,89,85,85,,

# Reference: patent publication US20130131321A1, “LIGANDS FOR ANTIBODY AND Fc-FUSION PROTEIN PURIFICATION BY AFFINITY CHROMATOGRAPHY” (GRAFFINITY PHARMACEUTICALS GMBH, priority 2010, published 2013)
